The test system of test [1] is T lymphocytes of BALB/c mice immunized with the parent peptide 88-99H4. In words: T lymphocyte proliferation (tritiated thymidine) of mice immunized with parent peptide 88-99H4, restimulated in culture with parent peptide or analogues. In kind it is cell-based. The conditions noted are these: mice immunized with parent 88-99H4; for index of stimulation (IS) relative to the wells without peptide: restimulation peptide 90 μM (printed "to 90 μM"), FIG. 1; for index of stimulation (IS): restimulation peptide 100 μM (printed "to 100 μM"), FIG. 4; for activity compared with that of the parent peptide 88-99: T cell restimulation. As for the experimental part: BALB/c mice were immunized with the parent peptide 88-99H4 and in cell cultures the T lymphocytes of these mice were restimulated with the same peptide or with the analogues A-E. The cell proliferation was measured by the incorporation of tritiated thymidine and the index of stimulation (1S) relative to the wells without peptide was calculated. The tests are performed in triplicate and the experiment is performed several times in independent experiments.
The same experiments were performed with peptide G, (corresponding to the sequence SEQ ID NO: 7).
FIG. 1: Response tests on the T lymphocytes of BALB/c mice injected with the parent peptide 88-99 of the histone H4 subcutaneously with Freund's adjuvant, and stimulation ex-vivo with the parent peptide or the analogue E; the stimulation index is shown on the y-axis and the different concentrations of peptide are shown on the x-axis.
FIG. 4: Response tests on the T lymphocytes of BALB/c mice injected with the parent peptide 88-99 of the histone H4 subcutaneously with Freund's adjuvant, and stimulation ex-vivo with the parent peptide or the analogue G; the stimulation index is shown on the y-axis and the different concentrations of peptide are shown on the x-axis.

The subject of test [2] is T lymphocytes of BALB/c mice injected with the modified peptide 88-99 of the histone H4. Briefly: Mirror test: T lymphocytes of mice injected with the modified 88-99 H4 peptides, stimulated ex vivo with the analogue and the parent peptide 88-99. It is filed as in vivo. The following applies: for immunogenicity (induces responses against the homologous peptide): mice injected with the analogue subcutaneously with Freund's adjuvant; for cross reaction of the generated T cells with the parent peptide 88-99: mice injected with the analogue, ex vivo stimulation with parent peptide 88-99. The protocol: In addition, a mirror manipulation of the foregoing was performed, namely response tests on the T lymphocytes of mice injected with the modified peptides and stimulation ex vivo with the parent peptide (88-99). After injection of the analogues, analyses were performed on cell cultures with the said analogues and the parent peptide 88-99. The following results are observed:
In addition, a mirror experiment of the foregoing was performed, namely an experiment on mice injected with the peptide G and stimulation ex vivo with increasing quantities of the parent peptide (88-99).
FIG. 2: Response tests on the T lymphocytes of BALB/c mice injected with the modified peptide 88-99 A or with the modified peptide 88-99 D of the histone H4 subcutaneously with Freund's adjuvant. The stimulation index is shown on the y-axis and the different concentrations of peptide are shown on the x-axis.
FIG. 3: Response tests on the T lymphocytes of BALB/c mice injected with the modified peptide 88-99 E of the histone H4 subcutaneously with Freund's adjuvant. The stimulation index is shown on the y-axis and the different concentrations of peptide are shown on the x-axis.
FIG. 5: Response tests on the T lymphocytes of BALB/c mice injected with the modified peptide 88-99 G of the histone H4 subcutaneously with Freund's adjuvant. The stimulation index is shown on the y-axis and the different concentrations of peptide are shown on the x-axis.

Entries after “also recorded” stand apart in the source; their conditions may differ. Square brackets hold non-standard residues; d marks the D form. NαhTyr = N-alpha-homo tyrosine (backbone-modified residue); NαhAla = N-alpha-homo alanine (backbone-modified residue); NαhLeu = N-alpha-homo leucine (backbone-modified residue); NαhLys = N-alpha-homo lysine (backbone-modified residue)

On to “H-Tyr-Ala-Leu-Lys-Arg-Gln-Gly-Arg-Thr-Leu-Tyr-Gly-OH (H-YALKRQGRTLYG-OH; listed as Homo sapiens) [parent peptide 88-99H4, reference compound]”, for which, in test [1], the “index of stimulation (IS) relative to the wells without peptide” value is 6.7 and the “index of stimulation (IS)” value was found to be 16.9.

Regarding “^88H2N-Tyr-Ala-Leu-Lys-Arg-Gln-Gly-Arg-Thr-Nα-hLeu-Nα-hTyr-Gly-OH^99 (H-YALKRQGRT[NαhLeu][NαhTyr]G-OH; also: Nα-homo leucine and tyrosine residues) [peptide G]”, in test [2], the “immunogenicity (induces responses against the homologous peptide)” value is “immunogenic”; the “cross reaction of the generated T cells with the parent peptide 88-99” value (from here on “cross reaction of the generated T cells”) was “react by cross reaction with the homologous peptide G and in particular with the parent peptide with the same intensity”. Besides, in test [1], the “activity compared with that of the parent peptide 88-99” value was “analogous” and the “index of stimulation (IS)” value was 16.6.

For “^88H2N-Tyr-Ala-Leu-Lys-Arg-Gln-Gly-Arg-Thr-Nα-hLeu-Tyr-Gly-OH^99 (H-YALKRQGRT[NαhLeu]YG-OH; also: Nα-homo leucine residue) [peptide E]”, in test [2], the “immunogenicity (induces responses against the homologous peptide)” value was “immunogenic” and the “cross reaction of the generated T cells” value is on record as “react by cross reaction with the parent peptide; also recorded: cross reacts perfectly”. In test [1], the “activity compared with that of the parent peptide 88-99” value is “analogous, or even superior depending on the experiments” and the “index of stimulation (IS) relative to the wells without peptide” value was found to be 7.7.

Regarding “^88H2N-Tyr-Ala-Leu-Nα-hLys-Arg-Gln-Gly-Arg-Thr-Leu-Tyr-Gly-OH^99 (H-YAL[NαhLys]RQGRTLYG-OH; also: Nα-homo amino acid residue) [peptide D]”, in test [2], the “immunogenicity (induces responses against the homologous peptide)” value is on record as “immunogenic” and the “cross reaction of the generated T cells” value was “no cross reaction with the parent peptide”.

Turning to “^88H2N-Tyr-Nα-hAla-Leu-Lys-Arg-Gln-Gly-Arg-Thr-Leu-Tyr-Gly-OH^99 (H-Y[NαhAla]LKRQGRTLYG-OH; also: Nα-homo amino acid residue) [peptide A]”, in test [2], the “immunogenicity (induces responses against the homologous peptide)” value is “immunogenic” and the “cross reaction of the generated T cells” value is given as “no cross reaction with the parent peptide”.

Values taken from US9017673B2, “Peptide analogues comprising at least one type of aminoacylaza-$g(b)3and the use thereof, in particular for therapy” (Centre National de la Recherche Scientifique, priority 2003, dated 2015).
